Laboratory results taken from US10385103B2, “Cell-permeable (ICP)-SOCS3 recombinant protein and uses thereof” (CELLIVERY THERAPEUTICS, INC., priority 2014, dated 2019).

System: RAW 264.7 cells
Assay: Quantitative cell-permeability of FITC-labeled aMTD- or rPeptide-fused CRA recombinant proteins (flow cytometry)
Format: cell-based
Details: for Relative Ratio to aMTD AVE: cell-permeability of rPeptide-fused CRA recombinant protein relative to average of 240 aMTDs
From the text: The aMTDs and rPeptides were fluorescently labeled and compared based on the critical factors for cell-permeability by using flow cytometry and confocal laser scanning microscopy (FIGS. 5 to 8). The cellular uptake of the peptide-fused non-functional cargo recombinant proteins could quantitatively be evaluated in flow cytometry, while confocal laser scanning microscopy allows intracellular uptake to be assessed visually. The analysis included recombinant proteins fused to a negative control [rP38] that has opposite characteristics (hydrophilic and aromatic sequence: […] NO: 952)) to the aMTDs (hydrophobic and aliphatic sequences). Relative cell-permeability (relative fold) of aMTDs to the negative control was also analyzed (Table 23 and FIG. 9). […] RAW 264.7 cells were treated with 10 μM FITC-labeled recombinant proteins for 1 hour at 37° C., washed three times with cold PBS, treated with 0.25% tripsin/EDTA (Sigma-Aldrich, St. Louis, Mo.) for 20 minutes at 37° C. to remove cell-surface bound proteins. Cell-permeability of these recombinant proteins were analyzed by flow cytometry (Guava, Millipore, Darmstadt, Germany) using the FlowJo cytometric analysis software (FIGS. 5 to 6).

[1] = cell-permeability relative to negative control rP38 (A type), aMTD-fused CRA recombinant protein, 10 μM FITC-labeled, 1 hour, 37° C., RAW 264.7 cells
[2] = cell-permeability relative to reference CPP MTD85 (C type), aMTD-fused CRA recombinant protein, 10 μM FITC-labeled, 1 hour, 37° C., RAW 264.7 cells
[3] = cell-permeability relative to reference CPP MTM12 (B type), aMTD-fused CRA recombinant protein, 10 μM FITC-labeled, 1 hour, 37° C., RAW 264.7 cells
[4] = cell-permeability of aMTD-fused CRA recombinant protein relative to negative control (A: rP38)
[5] = cell-permeability of aMTD-fused CRA recombinant protein relative to reference CPP (B: MTM12)
[6] = cell-permeability of aMTD-fused CRA recombinant protein relative to reference CPP (C: MTD85)
[7] = 10 μM FITC-labeled, 1 hour, 37° C., RAW 264.7 cells

Row | Substance | Relative Ratio (Fold) A [1] | Relative Ratio (Fold) C [2] | Relative Ratio (Fold) B [3] | Relative Ratio (Fold) A [4] | Relative Ratio (Fold) B [5] | Relative Ratio (Fold) C [6] | also measured
1 | 184 (LAAIVPAIIAVP; Amino acid Sequence of aMTD184) [compound 184] | 4.8 Fold | 1.6 Fold | 3.2 Fold |  |  |  | 
2 | 867 (ALLVVIAPLAAP; Amino acid Sequence of aMTD867) [compound 867] |  |  |  | 13.2 Fold | 8.8 Fold | 4.4 Fold | 
3 | 851 (VLAVVLPAVALP; Amino acid Sequence of aMTD851) [compound 851] |  |  |  | 96.6 Fold | 64.7 Fold | 32.7 Fold | 
4 | 727 (VALAIALPAVLP; Amino acid Sequence of aMTD727) [compound 727] |  |  |  | 54.7 Fold | 36.7 Fold | 18.5 Fold | 
5 | 182 (ALIAPVVALVAP; Amino acid Sequence of aMTD182) [compound 182] | 4.0 Fold | 1.4 Fold | 2.7 Fold |  |  |  | 
6 | 364 (LVAAVAPALIVP; Amino acid Sequence of aMTD364) [compound 364] | 6.5 Fold | 2.2 Fold | 4.3 Fold |  |  |  | 
7 | 828 (IALLAAPIIAVP; Amino acid Sequence of aMTD828) [compound 828] |  |  |  | 36.8 Fold | 24.6 Fold | 12.4 Fold | 
8 | 304 (AIILAPIAAIAP; Amino acid Sequence of aMTD304) [compound 304] | 4.4 Fold | 1.5 Fold | 3.0 Fold |  |  |  | 
9 | 113 (PVAVALLIAVPP; Amino acid Sequence of rPeptide ID 113) [compound 113] |  |  |  |  |  |  | Relative Ratio to aMTD AVE [7]: 0.61
10 | 765 (AVALAVVPAVLP; Amino acid Sequence of aMTD765) [compound 765] | 3.8 Fold | 1.3 Fold | 2.2 Fold |  |  |  | 
11 | 425 (AVVAIAPVLALP; Amino acid Sequence of aMTD425) [compound 425] |  |  |  | 9.4 Fold | 6.3 Fold | 3.2 Fold | 
12 | 62 (VALLAPVALAVP; Amino acid Sequence of aMTD62) [compound 62] | 1.4 Fold | 0.5 Fold | 0.9 Fold |  |  |  | 
13 | 811 (AVVLAVPALAVP; Amino acid Sequence of aMTD811) [compound 811] |  |  |  | 46.5 Fold | 31.1 Fold | 15.7 Fold | 
14 | 622 (ALIVLAAPVAVP; Amino acid Sequence of aMTD622) [compound 622] | 10.6 Fold | 3.6 Fold | 7.1 Fold | 10.6 Fold | 7.1 Fold | 3.6 Fold | 
15 | 61 (VAALPVLLAALP; Amino acid Sequence of aMTD61) [compound 61] |  |  |  | 31.2 Fold | 20.8 Fold | 10.5 Fold | 
16 | 764 (AVALAVLPAVVP; Amino acid Sequence of aMTD764) [compound 764] | 5.0 Fold | 1.7 Fold | 3.4 Fold |  |  |  | 
17 | 321 (IVAVALPALAVP; Amino acid Sequence of aMTD321) [compound 321] |  |  |  | 97.8 Fold | 65.2 Fold | 32.9 Fold | 

Row | Substance | Relative Ratio (Fold) A [1] | Relative Ratio (Fold) C [2] | Relative Ratio (Fold) B [3] | Relative Ratio (Fold) A [4] | Relative Ratio (Fold) B [5] | Relative Ratio (Fold) C [6] | also measured
18 | 82 (AVVLAPVAAVLP; Amino acid Sequence of aMTD82) [compound 82] | 2.1 Fold | 0.7 Fold | 1.4 Fold |  |  |  | 
19 | 26 (AAIALAAPLAIV; Amino acid Sequence of rPeptide ID 26) [compound 26] |  |  |  |  |  |  | Relative Ratio to aMTD AVE [7]: 0.65
20 | 763 (VAVLIAVPALAP; Amino acid Sequence of aMTD763) [compound 763] |  |  |  | 12.3 Fold | 7.2 Fold | 4.2 Fold | 
21 | 67 (LDAEVPLADDVP; Amino acid Sequence of rPeptide ID 67) [compound 67] |  |  |  |  |  |  | Relative Ratio to aMTD AVE [7]: 0.08; Relative Ratio (Fold) A (relative cell-permeability of rPeptide vs reference A (not defined)): 1.5 Fold; Relative Ratio (Fold) B (relative cell-permeability of rPeptide vs reference CPP B: MTM12): 0.9 Fold; Relative Ratio (Fold) C (relative cell-permeability of rPeptide vs reference CPP C: MTD85): 0.5 Fold
22 | 24 (IALAAPALIVAP; Amino acid Sequence of aMTD24) [compound 24] | 2.3 Fold | 0.8 Fold | 1.6 Fold |  |  |  | 
23 | 1 (AAALAPVVLALP; Amino acid Sequence of aMTD1) [compound 1] |  |  |  | 17.7 Fold | 11.8 Fold | 6.0 Fold | 
24 | 97 (ALLAAPPALLAL; Amino acid Sequence of rPeptide ID 97) [compound 97] |  |  |  |  |  |  | Relative Ratio to aMTD AVE [7]: 0.41
25 | 900 (ALVAVIAPVVAP; Amino acid Sequence of aMTD900) [compound 900] |  |  |  | 34.3 Fold | 22.9 Fold | 11.6 Fold | 
26 | 121 (AIVALPALALAP; Amino acid Sequence of aMTD121) [compound 121] | 2.5 Fold | 0.8 Fold | 1.7 Fold |  |  |  | 
27 | 139 (TGSTNSPTCTST; Amino acid Sequence of rPeptide ID 139) [compound 139] |  |  |  |  |  |  | Relative Ratio to aMTD AVE [7]: 0.17
28 | 461 (IAAVIVPAVALP; Amino acid Sequence of aMTD461) [compound 461] |  |  |  | 19.0 Fold | 12.7 Fold | 6.4 Fold | 
29 | 807 (AVALAVPALVLP; Amino acid Sequence of aMTD807) [compound 807] | 5.0 Fold | 1.7 Fold | 3.3 Fold |  |  |  | 
30 | 264 (LAAAPVVIVIAP; Amino acid Sequence of aMTD264) [compound 264] |  |  |  | 18.2 Fold | 12.1 Fold | 6.1 Fold | Relative Ratio (Fold) A (relative cell-permeability of aMTD vs reference A (not defined)): 18.2 Fold; Relative Ratio (Fold) B (relative cell-permeability of aMTD vs reference CPP B: MTM12): 12.1 Fold; Relative Ratio (Fold) C (relative cell-permeability of aMTD vs reference CPP C: MTD85): 6.1 Fold
31 | 401 (AALAVIPAAILP; Amino acid Sequence of aMTD401) [compound 401] |  |  |  | 10.6 Fold | 7.1 Fold | 3.6 Fold | 
32 | 223 (AILAVPIAVVAP; Amino acid Sequence of aMTD223) [compound 223] |  |  |  | 33.0 Fold | 22.1 Fold | 11.2 Fold | 
33 | 284 (ALIAPAVALIVP; Amino acid Sequence of aMTD284) [compound 284] | 2.8 Fold | 0.9 Fold | 1.8 Fold |  |  |  | 
34 | 703 (IVAVALVPALAP; Amino acid Sequence of aMTD703) [compound 703] |  |  |  | 29.2 Fold | 19.5 Fold | 9.9 Fold | 
